Reference: US10112937B2, “P2X7 modulators and methods of use” (Janssen Pharmaceutica NV, priority 2013, dated 2018)

How the values were obtained:
Assay type in all cases: cell-based
human P2X7 [1] = target: T1, human P2X7 (Homo sapiens (Human), UniProt Q99572); assay: P2X7 antagonism in human PBMCs (IL-1β release after LPS + Bz-ATP, ELISA); conditions: human PBMCs; for PBMC 1 μM (% control): test compound 1 μM
Experimental: P2X7 Antagonism in Human Peripheral Blood Mononuclear Cells (PBMCs) and Human Whole Blood.
Human blood was collected using a blood donor program. PBMCs were isolated from blood using a Ficoll density gradient technique. Briefly, blood was laid on Ficoll solution and centrifuged at RT for 20 minutes at 2000 rpm. The buffy layer (between red blood cells and plasma) was carefully collected by aspiration, washed with PBS and centrifuged again at 1500 rpm for 15 minutes. The resulting cell pellet was washed and plated on 96 well-plates for experiments. For the Human Whole Blood experiments, 150 μl of human blood was platted on 96 well-plates. Lipopolysaccharide (LPS) (30 ng/ml) was added to each well and incubated for 1 hour. Test compounds were then added and incubated for 30 minutes. The P2X7 agonist, 2′(3′)-O-(4-benzoylbenzoyl) adenosine 5′ triphosphate (Bz-ATP) was then added at a final concentration of 0.5 mM (PBMC) or 1 mM (blood). Cells were incubated for an additional 1.5 hours. At that point, supernatant was collected and stored for IL-1β assay using manufacturer's protocol for enzyme-linked immunosorbent assay (ELISA). Data was expressed as percent control, where control is defined as the difference in IL-1β release in LPS+Bz-ATP samples and LPS only samples. Data was plotted as response (% control) versus concentration to generate IC50 values. […] Data are analyzed and graphed on Graphpad Prism 5. For analysis, each concentration point is averaged from triplicate values and the averaged values are plotted on Graphpad Prism.

human P2X7 [2] = target: T1, human P2X7; assay: Ca2+ flux (FLIPR) in 1321N1 cells expressing recombinant human P2X7; conditions: 1321N1 cells, recombinant human P2X7, 250 μM BzATP;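 note: cells loaded with Calcium-4 dye, preincubated with test compound for 30 min, fluorescence change read 180 s after agonist addition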
Experimental: P2X7 Antagonism in Recombinant Human P2X7 Cells or Recombinant Rat P2X7 Cells: (a) Ca^2+ Flux and (b) Radioligand Binding
1321N1 cells expressing the recombinant human or rat P2X7 channel was cultured in HyQ DME/(HyClone/Dulbecco's Modified Eagle Medium) high glucose supplemented with 10% Fetal Bovine Serum (FBS) and appropriate selection marker. Cells were seeded at a density of 25000 cells/well (96-well clear bottom black walled plates) in 100 μl volume/well. On the day of the experiment, cell plates were washed with assay buffer, containing (in mM): 130 NaCl, 2 KCl, 1 CaCl2, 1 MgCl2, 10 HEPES, 5 glucose; pH 7.40 and 300 mOs. After the wash, cells were loaded with the Calcium-4 dye (Molecular Device) and incubated in the dark for 60 minutes. Test compounds were prepared at 250× the test concentration in neat DMSO. Intermediate 96-well compound plates were prepared by transferring 1.2 μL of the compound into 300 μL of assay buffer. A further 3× dilution occurred when transferring 50 μL/well of the compound plate to 100 μL/well in the cell plate. Cells were incubated with test compounds and dye for 30 minutes. […] The fluorescence change was measured 180 seconds after adding the agonist.

rat P2X7 = rat P2X7 (Rattus norvegicus (Rat), UniProt Q64663); assay: Ca2+ flux (FLIPR) in 1321N1 cells expressing recombinant rat P2X7;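 note: Calcium-4 dye fluorescence change read 180 s after agonist addition, with cells preincubated 30 min with compound and dye in 96-well plates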
[3] = 1321N1 cells, recombinant rat P2X7, 250 μM BzATP

rat P2X7, sequence (Q64663 whole entry): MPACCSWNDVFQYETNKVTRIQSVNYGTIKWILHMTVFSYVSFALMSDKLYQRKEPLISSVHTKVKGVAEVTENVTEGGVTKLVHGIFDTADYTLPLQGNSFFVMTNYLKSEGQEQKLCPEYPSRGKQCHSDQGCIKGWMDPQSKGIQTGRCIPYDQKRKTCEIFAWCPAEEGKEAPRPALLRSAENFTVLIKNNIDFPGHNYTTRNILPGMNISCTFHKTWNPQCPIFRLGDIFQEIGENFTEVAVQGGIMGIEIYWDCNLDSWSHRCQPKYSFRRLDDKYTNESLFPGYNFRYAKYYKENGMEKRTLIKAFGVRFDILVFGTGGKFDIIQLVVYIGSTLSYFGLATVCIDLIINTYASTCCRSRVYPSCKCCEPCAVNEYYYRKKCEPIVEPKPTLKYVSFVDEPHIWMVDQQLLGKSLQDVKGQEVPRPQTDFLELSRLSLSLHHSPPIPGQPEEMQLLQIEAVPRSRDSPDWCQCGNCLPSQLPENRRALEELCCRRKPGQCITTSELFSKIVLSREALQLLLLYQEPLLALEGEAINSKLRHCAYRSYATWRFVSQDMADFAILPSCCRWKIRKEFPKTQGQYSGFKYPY
T1 sequence (Q99572 whole entry): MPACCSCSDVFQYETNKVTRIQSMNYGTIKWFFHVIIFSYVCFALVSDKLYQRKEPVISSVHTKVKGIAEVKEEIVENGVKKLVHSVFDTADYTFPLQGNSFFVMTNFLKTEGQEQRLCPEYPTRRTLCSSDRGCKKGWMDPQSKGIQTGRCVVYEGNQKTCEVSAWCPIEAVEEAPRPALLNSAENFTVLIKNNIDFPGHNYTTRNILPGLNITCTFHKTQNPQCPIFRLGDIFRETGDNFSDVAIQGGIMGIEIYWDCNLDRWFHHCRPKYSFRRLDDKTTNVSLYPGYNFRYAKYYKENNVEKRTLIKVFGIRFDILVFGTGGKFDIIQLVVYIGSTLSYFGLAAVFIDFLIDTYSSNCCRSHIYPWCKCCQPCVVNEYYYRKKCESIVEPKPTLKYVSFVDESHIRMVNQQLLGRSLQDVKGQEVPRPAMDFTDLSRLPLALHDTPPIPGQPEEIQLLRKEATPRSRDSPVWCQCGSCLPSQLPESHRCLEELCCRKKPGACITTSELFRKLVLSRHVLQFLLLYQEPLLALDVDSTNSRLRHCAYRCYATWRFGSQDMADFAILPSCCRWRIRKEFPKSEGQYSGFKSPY

Row | SMILES | PBMC 10 μM (% control) (human P2X7 [1]; test compound 10 μM) | IC50 (human P2X7 [2]) | IC50 (rat P2X7; [3]) | also measured
1 | Cc1ccnc(-n2nnc3c2CCN(C(=O)c2cccc(OC(F)(F)F)c2)C3C)c1 (single isomer, unassigned) [Example 377, (S*)-(4-methyl-1-(4-methylpyridin-2-yl)-6,7-dihydro-1H-[1,2,3]triazolo[4,5-c]pyridin-5(4H)-yl)(3-(trifluoromethoxy)phenyl)methanone] | 8.1 % control | 5510 nM | – | –
2 | O=C(c1cccc(C(F)(F)F)c1Cl)N1CCc2c(ncn2-c2ccccn2)C1 [Example 1, (2-Chloro-3-(trifluoromethyl)phenyl)(1-(pyridin-2-yl)-6,7-dihydro-1H-imidazo[4,5-c]pyridin-5(4H)-yl)methanone] | – | 4.1 nM | – | –
3 | CCC1c2ncn(-c3cnccn3)c2CCN1C(=O)c1cccc(C(F)(F)F)c1Cl (stereo not drawn) [Example 15, (2-Chloro-3-(trifluoromethyl)phenyl)(4-ethyl-1-(pyrazin-2-yl)-6,7-dihydro-1H-imidazo[4,5-c]pyridin-5(4H)-yl)methanone] | – | 81.4 nM | – | PBMC 1 μM (% control) (human P2X7 [1]): 9.1 % control
4 | CC1c2ncn(-c3ncccc3F)c2CCN1C(=O)c1cccc(C(F)(F)F)c1Cl (stereo not drawn) [Example 21, (2-Chloro-3-(trifluoromethyl)phenyl)(1-(3-fluoropyridin-2-yl)-4-methyl-6,7-dihydro-1H-imidazo[4,5-c]pyridin-5(4H)-yl)methanone] | 1.6 % control | 90 nM | – | –
5 | CCOC(=O)C1c2ncn(-c3ccccn3)c2CCN1C(=O)c1cccc(Cl)c1Cl (stereo not drawn) [Example 25, Ethyl 5-(2,3-dichlorobenzoyl)-1-(pyridin-2-yl)-4,5,6,7-tetrahydro-1H-imidazo[4,5-c]pyridine-4-carboxylate] | – | 142 nM | – | PBMC 1 μM (% control) (human P2X7 [1]): 9.7 % control
6 | O=C(OCC1c2ncn(-c3ccccc3)c2CCN1C(=O)c1cccc(C(F)(F)F)c1Cl)c1cccc(C(F)(F)F)c1Cl (stereo not drawn) [Example 36, (5-{[2-Chloro-3-(trifluoromethyl)phenyl]carbonyl}-1-phenyl-4,5,6,7-tetrahydro-1H-imidazo[4,5-c]pyridin-4-yl)methyl 2-chloro-3-(trifluoromethyl)benzoate] | – | 3390 nM | – | –
7 | CC1(C)c2ncn(-c3ccccc3)c2CCN1C(=O)c1cccc(C(F)(F)F)c1Cl [Example 53, 5-{[2-Chloro-3-(trifluoromethyl)phenyl]carbonyl}-4,4-dimethyl-1-phenyl-4,5,6,7-tetrahydro-1H-imidazo[4,5-c]pyridine] | – | – | 3150 nM | PBMC 1 μM (% control) (human P2X7 [1]): 99.0 % control
8 | O=C(c1cccc(C(F)(F)F)c1Cl)N1CCc2c(nnn2-c2ncc(F)cn2)C1 [Example 64, 5-{[2-Chloro-3-(trifluoromethyl)phenyl]carbonyl}-1-(5-fluoropyrimidin-2-yl)-4,5,6,7-tetrahydro-1H-[1,2,3]triazolo[4,5-c]pyridine] | −9.2 % control | 22.8 nM | – | –
9 | CC1c2ncn(-c3ccc(F)cn3)c2CCN1C(=O)c1ccc(F)cc1Cl (stereo not drawn) [Example 256, (2-chloro-4-fluorophenyl)(1-(5-fluoropyridin-2-yl)-4-methyl-6,7-dihydro-1H-imidazo[4,5-c]pyridin-5(4H)-yl)methanone] | 7.1 % control | 4370 nM | – | –
10 | CC1c2ncn(-c3ccc(F)cn3)c2CCN1C(=O)c1ccc(F)c(Cl)c1Cl (stereo not drawn) [Example 261, (2,3-dichloro-4-fluorophenyl)(1-(5-fluoropyridin-2-yl)-4-methyl-6,7-dihydro-1H-imidazo[4,5-c]pyridin-5(4H)-yl)methanone] | −3.1 % control | 29.3 nM | – | –
11 | CC1c2ncn(-c3ccc(F)cn3)c2CCN1C(=O)c1cccc(C(F)(F)F)c1F (stereo not drawn) [Example 262, (2-fluoro-3-(trifluoromethyl)phenyl)(1-(5-fluoropyridin-2-yl)-4-methyl-6,7-dihydro-1H-imidazo[4,5-c]pyridin-5(4H)-yl)methanone] | −3.6 % control | – | 3470 nM | –
12 | Cc1c(C(=O)N2CCc3c(ncn3-c3ccc(F)cn3)C2C)cccc1C(F)(F)F (stereo not drawn) [Example 263, (1-(5-fluoropyridin-2-yl)-4-methyl-6,7-dihydro-1H-imidazo[4,5-c]pyridin-5(4H)-yl)(2-methyl-3-(trifluoromethyl)phenyl)methanone] | −1.6 % control | 17.5 nM | – | –
13 | Cc1c(C(=O)N2CCc3c(ncn3-c3ccc(F)cn3)C2)cccc1C(F)(F)F [Example 312, (1-(5-fluoropyridin-2-yl)-6,7-dihydro-1H-imidazo[4,5-c]pyridin-5(4H)-yl)(2-methyl-3-(trifluoromethyl)phenyl)methanone] | 9.5 % control | 114 nM | – | –
14 | O=C(c1ccc(Cl)cc1Cl)N1CCc2c(ncn2-c2ccc(F)cn2)C1 [Example 313, (2,4-dichlorophenyl)(1-(5-fluoropyridin-2-yl)-6,7-dihydro-1H-imidazo[4,5-c]pyridin-5(4H)-yl)methanone] | −5.4 % control | 880 nM | – | –
15 | O=C(c1cccc(C(F)(F)F)c1F)N1CCc2c(ncn2-c2ccc(F)cn2)C1 [Example 314, (2-fluoro-3-(trifluoromethyl)phenyl)(1-(5-fluoropyridin-2-yl)-6,7-dihydro-1H-imidazo[4,5-c]pyridin-5(4H)-yl)methanone] | – | 3540 nM | – | –
16 | Cc1ccnc(-n2nnc3c2CCN(C(=O)c2ccnc(C(F)(F)F)c2F)C3C)c1 (stereo not drawn) [Example 355, (3-fluoro-2-(trifluoromethyl)pyridin-4-yl)(4-methyl-1-(4-methylpyridin-2-yl)-6,7-dihydro-1H-[1,2,3]triazolo[4,5-c]pyridin-5(4H)-yl)methanone] | −2.0 % control | – | 394 nM | –
17 | Cc1cc(-n2nnc3c2CCN(C(=O)c2ccc(Cl)c(C(F)(F)F)c2)C3C)ncc1F (stereo not drawn) [Example 364, (4-chloro-3-(trifluoromethyl)phenyl)(1-(5-fluoro-4-methylpyridin-2-yl)-4-methyl-6,7-dihydro-1H-[1,2,3]triazolo[4,5-c]pyridin-5(4H)-yl)methanone] | 4.8 % control | – | 5790 nM | –
18 | Cc1cc(-n2nnc3c2CCN(C(=O)c2cccc(C(F)(F)F)c2Cl)C3C)ncc1F (stereo not drawn) [Example 381, (2-chloro-3-(trifluoromethyl)phenyl)(1-(5-fluoro-4-methylpyridin-2-yl)-4-methyl-6,7-dihydro-1H-[1,2,3]triazolo[4,5-c]pyridin-5(4H)-yl)methanone] | 4.1 % control | – | 234 nM | –
19 | Cc1cccc(-n2nnc3c2CCN(C(=O)c2cccc(C(F)(F)F)c2F)C3C)n1 (stereo not drawn) [Example 385, (2-fluoro-3-(trifluoromethyl)phenyl)(4-methyl-1-(6-methylpyridin-2-yl)-6,7-dihydro-1H-[1,2,3]triazolo[4,5-c]pyridin-5(4H)-yl)methanone] | 12.4 % control | – | 57.8 nM | –
20 | Cc1ccnc(-n2nnc3c2CCN(C(=O)c2cccc(Cl)c2C)C3C)c1 (stereo not drawn) [Example 388, (3-chloro-2-methylphenyl)(4-methyl-1-(4-methylpyridin-2-yl)-6,7-dihydro-1H-[1,2,3]triazolo[4,5-c]pyridin-5(4H)-yl)methanone] | −18.8 % control | – | 2280 nM | –
21 | CC1c2n[nH]c(-c3cnccn3)c2CCN1C(=O)c1cccc(C(F)(F)F)c1Cl (stereo not drawn) [Example 438, (2-chloro-3-(trifluoromethyl)phenyl)(7-methyl-3-(pyrazin-2-yl)-4,5-dihydro-2H-pyrazolo[3,4-c]pyridin-6(7H)-yl)methanone] | – | – | – | PBMC 10 μM (% control) (human P2X7 [1]; 10 μM test compound, LPS + Bz-ATP): −10.8 % control; IC50 (rat P2X7; Ca2+ flux, 250 μM BzATP, rat P2X7 1321N1 cells): 482 nM
